# Test results: ChEMBL document CHEMBL5113380, “Functionalized quinoxalinones as privileged structures with broad-ranging pharmacological activities” (Eur J Med Chem, 2022)
# Target: Glutamate [NMDA] receptor
# Assay: Binding affinity to NMDA receptor (unknown origin)
# Type: protein-complex assay, Homo sapiens
# Details: not given
row,SMILES,Ki [µM]
1,O=C(O)c1ccccc1/C=C/c1ccc2[nH]c(=O)c(=O)[nH]c2c1,> 100
2,O=C(O)Cc1cccc(-c2ccc3[nH]c(=O)c(=O)[nH]c3c2)c1,41
3,O=c1[nH]c2ccc(/C=C/CP(=O)(O)O)cc2[nH]c1=O,69
4,Cc1ccc(C(=O)O)cc1-c1ccc2[nH]c(=O)c(=O)[nH]c2c1,> 100
5,O=c1[nH]c2ccc(CCCP(=O)(O)O)cc2[nH]c1=O,55
6,O=c1[nH]c2ccc(-c3cccc(P(=O)(O)O)c3)cc2[nH]c1=O,> 100
7,O=C(O)CNS(=O)(=O)c1ccc2nc(O)c(O)nc2c1,53

# Target: Glutamate receptor ionotropic, kainate 2 (Homo sapiens, UniProt Q13002)
# Sequence (Q13002 whole entry): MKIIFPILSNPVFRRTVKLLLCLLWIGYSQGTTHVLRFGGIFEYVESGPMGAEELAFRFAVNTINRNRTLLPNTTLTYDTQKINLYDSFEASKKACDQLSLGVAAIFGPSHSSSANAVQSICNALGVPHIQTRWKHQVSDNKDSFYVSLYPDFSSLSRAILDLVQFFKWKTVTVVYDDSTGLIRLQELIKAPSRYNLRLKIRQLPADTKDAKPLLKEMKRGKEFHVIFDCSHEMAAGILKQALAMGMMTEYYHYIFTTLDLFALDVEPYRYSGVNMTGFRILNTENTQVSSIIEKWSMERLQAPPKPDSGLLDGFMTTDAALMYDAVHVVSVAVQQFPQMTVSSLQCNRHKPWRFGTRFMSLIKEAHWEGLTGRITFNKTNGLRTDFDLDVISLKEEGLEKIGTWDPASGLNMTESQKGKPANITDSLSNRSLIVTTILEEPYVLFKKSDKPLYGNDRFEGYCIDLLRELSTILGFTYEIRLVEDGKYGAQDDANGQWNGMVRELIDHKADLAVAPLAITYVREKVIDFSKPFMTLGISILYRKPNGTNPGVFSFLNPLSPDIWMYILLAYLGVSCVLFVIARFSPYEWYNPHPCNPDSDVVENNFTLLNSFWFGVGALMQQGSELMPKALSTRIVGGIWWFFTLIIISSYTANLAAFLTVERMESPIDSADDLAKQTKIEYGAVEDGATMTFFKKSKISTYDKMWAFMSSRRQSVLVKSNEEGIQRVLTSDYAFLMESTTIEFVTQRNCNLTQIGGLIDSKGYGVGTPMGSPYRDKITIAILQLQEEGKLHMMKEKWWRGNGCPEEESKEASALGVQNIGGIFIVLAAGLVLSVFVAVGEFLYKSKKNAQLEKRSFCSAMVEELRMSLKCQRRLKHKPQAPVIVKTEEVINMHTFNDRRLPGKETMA
# Assay: Binding affinity to GluK2 receptor (unknown origin)
# Details: not given
row,SMILES,Ki [µM]
1,O=C(O)c1ccccc1/C=C/c1ccc2[nH]c(=O)c(=O)[nH]c2c1,2.5
2,O=C(O)Cc1cccc(-c2ccc3[nH]c(=O)c(=O)[nH]c3c2)c1,> 100
3,O=c1[nH]c2ccc(/C=C/CP(=O)(O)O)cc2[nH]c1=O,> 100
4,Cc1ccc(C(=O)O)cc1-c1ccc2[nH]c(=O)c(=O)[nH]c2c1,> 100
5,O=c1[nH]c2ccc(CCCP(=O)(O)O)cc2[nH]c1=O,> 100
6,O=c1[nH]c2ccc(-c3cccc(P(=O)(O)O)c3)cc2[nH]c1=O,> 100
7,O=C(O)CNS(=O)(=O)c1ccc2nc(O)c(O)nc2c1,> 100

# System: not listed separately
# Assay: Inhibition of ALR2 (unknown origin)
# Parameters: species or system Homo sapiens
# Details: not given
row,SMILES,IC50 [µM]
1,O=c1[nH]c2c([N+](=O)[O-])c(Cl)c(Cl)c([N+](=O)[O-])c2nc1Oc1ccccc1,1.54

# Target: Glutamate receptor ionotropic, kainate 1 (Homo sapiens, UniProt P39086)
# Sequence (P39086 whole entry): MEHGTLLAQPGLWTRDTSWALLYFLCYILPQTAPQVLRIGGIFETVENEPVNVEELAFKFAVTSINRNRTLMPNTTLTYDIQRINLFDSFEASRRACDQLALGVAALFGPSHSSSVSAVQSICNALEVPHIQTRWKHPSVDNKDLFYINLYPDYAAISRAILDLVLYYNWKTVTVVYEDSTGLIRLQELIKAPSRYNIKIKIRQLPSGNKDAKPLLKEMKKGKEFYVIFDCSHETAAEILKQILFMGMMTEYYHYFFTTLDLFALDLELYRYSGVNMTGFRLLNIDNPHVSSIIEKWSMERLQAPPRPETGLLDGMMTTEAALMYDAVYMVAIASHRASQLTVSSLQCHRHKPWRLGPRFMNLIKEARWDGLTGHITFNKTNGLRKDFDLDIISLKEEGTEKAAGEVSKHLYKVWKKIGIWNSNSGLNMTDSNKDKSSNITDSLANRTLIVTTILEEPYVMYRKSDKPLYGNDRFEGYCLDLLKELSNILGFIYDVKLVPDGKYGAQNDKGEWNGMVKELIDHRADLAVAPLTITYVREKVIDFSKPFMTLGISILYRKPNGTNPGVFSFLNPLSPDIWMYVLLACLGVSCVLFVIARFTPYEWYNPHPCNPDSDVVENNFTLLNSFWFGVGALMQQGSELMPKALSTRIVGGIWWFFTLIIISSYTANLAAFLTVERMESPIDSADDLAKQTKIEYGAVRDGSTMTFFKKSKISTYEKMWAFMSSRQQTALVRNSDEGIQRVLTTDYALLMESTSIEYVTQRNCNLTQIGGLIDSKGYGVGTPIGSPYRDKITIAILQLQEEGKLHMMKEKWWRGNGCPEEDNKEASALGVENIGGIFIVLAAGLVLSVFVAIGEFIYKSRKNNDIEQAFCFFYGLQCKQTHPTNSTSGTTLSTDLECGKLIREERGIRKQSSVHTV
# Assay: Binding affinity to GluK1 receptor (unknown origin)
# Details: not given
row,SMILES,Ki [µM]
1,O=C(Nn1c(=O)c(=O)[nH]c2cc(C#CCCO)ccc21)c1ccccc1,12.7
2,O=C(O)c1ccccc1/C=C/c1ccc2[nH]c(=O)c(=O)[nH]c2c1,1.4
3,O=C(O)Cc1cccc(-c2ccc3[nH]c(=O)c(=O)[nH]c3c2)c1,> 100
4,O=c1[nH]c2ccc(/C=C/CP(=O)(O)O)cc2[nH]c1=O,> 100
5,Cc1ccc(C(=O)O)cc1-c1ccc2[nH]c(=O)c(=O)[nH]c2c1,1.3
6,O=c1[nH]c2ccc(CCCP(=O)(O)O)cc2[nH]c1=O,> 100
7,O=c1[nH]c2ccc(-c3cccc(P(=O)(O)O)c3)cc2[nH]c1=O,12
8,O=C(O)CNS(=O)(=O)c1ccc2nc(O)c(O)nc2c1,> 100

# System: not listed separately
# Assay: Antioxidant activity assessed as DPPH radical scavenging activity
# Type: functional
# Details: read-out: IC50
row,SMILES,IC50 [µM]
1,O=C1CSC(c2ccc([N+](=O)[O-])cc2)N1c1ccc2nc(Cc3ccc(O)cc3)c(=O)[nH]c2c1 (stereo unspecified),10.5
2,CSCCc1nc2ccc(N3C(=O)CSC3c3ccc([N+](=O)[O-])cc3)cc2[nH]c1=O (stereo unspecified),28.9

# System: Candida albicans
# Assay: Antifungal activity against Candida albicans
# Type: functional
# Details: not given
row,SMILES,MBC [µM]
1,CSCCc1nc2ccc(N3C(=O)CSC3c3ccc([N+](=O)[O-])cc3)cc2[nH]c1=O (stereo unspecified),353

# System: Klebsiella pneumoniae
# Assay: Antibacterial activity against Klebsiella pneumoniae
# Type: functional
# Details: not given
row,SMILES,MBC [µM]
1,CSCCc1nc2ccc(N3C(=O)CSC3c3ccc([N+](=O)[O-])cc3)cc2[nH]c1=O (stereo unspecified),706

# Target: Glutamate receptor 2 (Homo sapiens, UniProt P42262)
# Sequence (P42262 whole entry): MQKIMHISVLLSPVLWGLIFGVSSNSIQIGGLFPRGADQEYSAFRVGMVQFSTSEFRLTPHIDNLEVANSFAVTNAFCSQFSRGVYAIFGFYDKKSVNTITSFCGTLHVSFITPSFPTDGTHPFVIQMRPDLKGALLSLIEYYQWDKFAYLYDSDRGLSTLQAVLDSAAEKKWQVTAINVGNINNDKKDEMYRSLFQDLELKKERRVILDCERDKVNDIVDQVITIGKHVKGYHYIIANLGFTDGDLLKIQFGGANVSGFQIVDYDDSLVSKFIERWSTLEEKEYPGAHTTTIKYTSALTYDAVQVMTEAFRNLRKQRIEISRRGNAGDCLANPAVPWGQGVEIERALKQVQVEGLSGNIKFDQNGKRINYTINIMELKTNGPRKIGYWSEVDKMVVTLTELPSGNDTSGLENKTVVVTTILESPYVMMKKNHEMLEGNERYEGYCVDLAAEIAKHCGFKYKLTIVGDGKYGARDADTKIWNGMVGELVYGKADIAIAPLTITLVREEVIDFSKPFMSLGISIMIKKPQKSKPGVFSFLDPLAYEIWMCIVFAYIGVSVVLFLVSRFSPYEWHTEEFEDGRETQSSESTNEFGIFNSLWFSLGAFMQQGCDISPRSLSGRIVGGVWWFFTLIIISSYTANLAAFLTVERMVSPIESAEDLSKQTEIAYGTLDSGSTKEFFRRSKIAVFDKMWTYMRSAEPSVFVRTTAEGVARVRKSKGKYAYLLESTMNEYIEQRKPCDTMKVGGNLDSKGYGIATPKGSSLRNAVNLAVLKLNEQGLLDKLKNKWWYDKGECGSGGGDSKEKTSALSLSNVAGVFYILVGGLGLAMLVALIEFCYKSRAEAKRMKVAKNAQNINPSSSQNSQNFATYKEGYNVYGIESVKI
# Assay: Binding affinity to GluA2 receptor (unknown origin)
# Details: not given
row,SMILES,Ki [µM]
1,O=C(Nn1c(=O)c(=O)[nH]c2cc(C#CCCO)ccc21)c1ccccc1,> 100
2,Cc1ccc(C(=O)O)cc1-c1ccc2[nH]c(=O)c(=O)[nH]c2c1,> 100
3,O=c1[nH]c2ccc(-c3cccc(P(=O)(O)O)c3)cc2[nH]c1=O,> 100

# System: Escherichia coli
# Assay: Antibacterial activity against Escherichia coli
# Type: functional
# Details: not given
row,SMILES,MIC [µg/mL]
1,CCOC(=O)c1nc2ccc(C(F)(F)F)cc2[nH]c1=O,125
2,O=C(O)c1nc2ccc(Cl)cc2[nH]c1=O,125

# Target: T1, Glutamate receptor ionotropic AMPA (Homo sapiens, UniProt P42261+P42262+P42263+P48058)
# Assay: Binding affinity to AMPA receptor (unknown origin)
# Type: protein-complex assay
# Details: not given
SMILES,IC50 [µM],Ki [µM]
O=C(O)c1ccccc1/C=C/c1ccc2[nH]c(=O)c(=O)[nH]c2c1,0.48,–
O=C(O)Cc1cccc(-c2ccc3[nH]c(=O)c(=O)[nH]c3c2)c1,> 100,–
O=c1[nH]c2ccc(/C=C/CP(=O)(O)O)cc2[nH]c1=O,> 100,–
O=C(Nc1ccc(C(=O)O)cc1)OCc1cn(-c2cc3nc(C(=O)O)c(=O)[nH]c3cc2[N+](=O)[O-])cn1,–,0.022
O=C(Nc1ccc(C(=O)O)cc1)OCc1cn(-c2cc3nc(C(=O)O)c(O)nc3cc2C(F)(F)F)cn1,–,0.016
Cc1ccc(C(=O)O)cc1-c1ccc2[nH]c(=O)c(=O)[nH]c2c1,30,–
O=c1[nH]c2ccc(CCCP(=O)(O)O)cc2[nH]c1=O,> 100,–
O=c1[nH]c2ccc(-c3cccc(P(=O)(O)O)c3)cc2[nH]c1=O,> 100,–
O=C(O)CNS(=O)(=O)c1ccc2nc(O)c(O)nc2c1,> 100,–

# Target: not listed separately
# Assay: Displacement of [3H]glycine from AMPA receptor (unknown origin)
# Type: protein-complex assay, Homo sapiens
# Details: not given
SMILES,IC50 [µM],Ki [µM]
CCOC(=O)CN(C)Cc1c(CC)c([N+](=O)[O-])cc2nc(O)c(O)nc12,> 10,–
CCc1c([N+](=O)[O-])cc2nc(O)c(O)nc2c1CN(C)CC(=O)O,0.47,–
O=[N+]([O-])c1cc2nc(O)c(O)nc2nc1-n1ccnc1,–,10

# Target: T1, Glutamate receptor ionotropic AMPA
# Assay: Displacement of [3H]AMPA from AMPA receptor (unknown origin)
# Type: protein-complex assay
# Details: not given
SMILES,Ki [µM],IC50 [µM]
CCOC(=O)c1nc2c(O)nc3cc([N+](=O)[O-])c(-n4ccc(C(=O)O)c4)cc3n2n1,0.068,–
NC(CNC(=O)C(=O)O)C(=O)O (stereo unspecified),–,1.3
O=C(O)c1ccn(-c2cc3c(cc2[N+](=O)[O-])nc(O)c2nc(C(=O)O)nn23)c1,0.019,–
CCc1c(Br)cc2nc(O)c(O)nc2c1CN(C)CC(=O)O,–,2.32
CCOC(=O)CN(C)Cc1c(CC)c([N+](=O)[O-])cc2nc(O)c(O)nc12,–,1.59
CCc1c([N+](=O)[O-])cc2nc(O)c(O)nc2c1CN(C)CC(=O)O,–,0.14
O=[N+]([O-])c1cc2nc(O)c(O)nc2nc1-n1ccnc1,0.14,–
O=c1[nH]c2cc([N+](=O)[O-])c(-n3ccnc3)nc2n2cnnc12,0.19,–
C=Cc1c(Br)cc2nc(O)c(O)nc2c1CN(C)CC(=O)O,–,1.18
NC(Cn1c(=O)c(=O)[nH]c2ccccc21)C(=O)O (stereo unspecified),–,0.69

# Species on record: Homo sapiens
# Assay: Inhibition of human TRK relative to control
# Parameters: concentration or dose not given beside the values
# Details: concentration not given here
row,SMILES,inhibition [%]
1,Cc1nn(-c2ccccc2)c(N2CCN(S(=O)(=O)c3ccccc3)CC2)c1/C=N/Nc1nc2ccccc2nc1O,12

# Target: not listed separately
# Assay: Binding affinity to KA receptor (unknown origin)
# Parameters: species or system Homo sapiens
# Details: not given
row,SMILES,IC50 [µM]
1,O=C(O)c1ccccc1/C=C/c1ccc2[nH]c(=O)c(=O)[nH]c2c1,24
2,O=C(O)Cc1cccc(-c2ccc3[nH]c(=O)c(=O)[nH]c3c2)c1,> 100
3,O=c1[nH]c2ccc(/C=C/CP(=O)(O)O)cc2[nH]c1=O,> 100
4,Cc1ccc(C(=O)O)cc1-c1ccc2[nH]c(=O)c(=O)[nH]c2c1,> 100
5,O=c1[nH]c2ccc(CCCP(=O)(O)O)cc2[nH]c1=O,> 100
6,O=c1[nH]c2ccc(-c3cccc(P(=O)(O)O)c3)cc2[nH]c1=O,> 100
7,O=C(O)CNS(=O)(=O)c1ccc2nc(O)c(O)nc2c1,> 100

# System: Pseudomonas aeruginosa
# Assay: Antibacterial activity against Pseudomonas aeruginosa
# Type: functional
# Details: not given
row,SMILES,MIC [µg/mL]
1,CCOC(=O)c1nc2cc(F)ccc2[nH]c1=O,250
2,CCOC(=O)c1nc2cc(F)c(N3CCOCC3)cc2[nH]c1=O,250
3,CCc1nc2ccc(C(F)(F)F)cc2[nH]c1=O,125
4,CCc1nc2cc(C(F)(F)F)ccc2[nH]c1=O,62.5
